# Laboratory results: patent US9611281B2, “BODIPY derivatives and methods of synthesis and use thereof” (The Board of Regents of the University of Oklahoma, priority 2013, dated 2017)
# Legend:
# colon-26 tumor model = test: In vivo PDT response following SBDPiR690 treatment; design: species or system Balb/c mice
# Method: 25 animals were divided into 4 groups: control, dark control (SBDPiR690 only), light control (light only), and SBDPiR690-with light exposure (PDT). SBDPiR690 was intravenously injected into mice with colon-26 tumor model, followed by light illumination after 15 minutes postinjection using a light dose of 100 mW/cm^2 (FIGS. 28-29). Mice body weight and tumor response at high light doses (˜500 J cm^−2) were used for initial toxicity profiles.
# colon cancer tumors = test: H&E histology of tumors after SBDPiR690 PDT; type: in vivo, Balb/c mice; settings: 1 day post treatment
# Description: To access the effect of SBDPiR690 on the tumor regions, tumor samples were collected from SBDPiR690 treated and control mice 1 day post treatment. The samples were fixed, embedded, sectioned, and stained using hematoxylin and eosin.
# [1] = Real time whole body imaging of SBDPiR690 clearance and biodistribution; design: species or system mice; settings: mouse, in vivo
# Method: The inherent fluorescent properties of SBDPiR690 enabled its use in real time whole body imaging to evaluate the clearance and biodistribution of the drug in organs, making it an applicable theranostic agent. The drug clears from organs and tissue by 24 hours, reducing the occurrence of skin photo-toxicity, which is a major problem among photosensitizers. […] These findings show the effectiveness of SBDPiR690 as a photosensitizer for use in PDT in clinical setting.
# [2] = Optical properties (absorption, emission, extinction coefficient) of BDP635 and derivative SBDPiRs; type: physicochemical
# [3] = Singlet oxygen generation, indirect method of DPBF photooxidation; settings: DPBF photooxidation monitored at 410 nm
# Method: Singlet oxygen generation and photostability: A singlet oxygen generation experiment on compound 53 using the indirect method of DPBF photooxidation was performed. There were strong similarities of the behavior of 53 towards DPBF with SBDPiR715. […] The photooxidation of DPBF was monitored by UV-vis spectrophotometer at 410 nm. […] Additionally, less than 30% of 53 photobleached under the harsh light illumination condition over a period of an hour, which is a strong evidence for photostability (FIG. 21).
# [4] = Drug biodistribution of SBDPiR715; type: in vivo, Balb/c mice; settings: 5 μmol/kg i.p., 24 hours postinjection
# Method: Mice were injected via i.p. with SBDPiR715 (5 μmol/kg/3.7 mg/kg). After 24 hours postinjection, the mice (n=3) were euthanized by CO2 inhalation. Tissues were excised from major organs and tumor. Collected tissues were rinsed with PBS and blotted dry. One hundred milligram of excised tissue was homogenized with CHCl3 (1 ml). The homogenates were centrifuged at 5160 g for 20 minutes, and the supernatant was used for fluorescence measurement (excitation at 710 nm and emission at 754 nm). The amount of compound in each sample was evaluated relative to the standard curve and expressed in “mg/g of tissue” unit.
# colon-26 tumors = test: In vivo SBDPiR715-mediated PDT
# Method: PS: To obtain an injection solution of SBDPiR715, the emulsifier Tween 80 was used. Tween 80 is a nonionic surfactant, frequently used in vivo as a solubilizing agent for highly lipophilic therapeutics. The formulation procedure required dissolving the PS in a minimal amount of Tween 80 (100 μl). The paste was allowed to stand overnight. 5% Dextrose in phosphate-buffered saline (PBS) solution was added, and the solution was sonicated for 1 hour. The resulting green solution was filtered through a 0.2 μm membrane filter. To ensure the accuracy of the concentration, which might vary due to partial solubility of the PS, the exact concentration was confirmed by UV-visible spectral analysis of the solutions prior to dosing.
# Cells and Animal Models: Colon-26 mouse carcinoma cells were obtained from the American Type Culture Collection (ATCC) and cultured in minimum essential medium supplemented with 10% (v/v) fetal calf serum (FCS), 50 U ml^−1 penicillin, 50 μg ml^−1 streptomycin, and 1% (v/v) L-glutamine. The cells were maintained in 5% CO2 (v/v) and 21% O2 (v/v) at 37° C. All animal experiments were approved by IACUC of the University of Oklahoma Health Sciences Center. Female BALB/c mice were received from Charles River at 6-8 weeks old. Balb/c mice were shaved on the upper back and depilated with Nair (Carter-Wallace Inc., New York, N.Y., USA). Mice were anesthetized with an i.p. injection of ketamine/xylazine cocktail (90 mg kg^−1 ketamine and 10 mg kg xylazine). One million colon-26 cells were injected subcutaneously in one dorsal neck area suspended in […] PBS. Tumors grew predictably in all the mice and reached a size of 4- to 6-mm diameter in 5-7 days, or 8-11 mm in 14-16 days after injection, at which time they were used for PDT.
# SBDPiR715 in 1% Tween 80-5% Dextrose solvent was injected i.p. at a dose of 3 μmol/kg (2.2 mg/kg) and 5 μmol/kg (3.7 mg/kg) in 0.2 ml solution. Tumors were irradiated 6 hours, 24 hours, or 32 hours after the injection using a Lumacare LC-122M with a fiber-optic light delivery system (Lumacare, Newport Beach, Calif., USA) emitting light at 700 nm (±40 nm). […] No evident temperature increase was detected at the site of irradiation. Mice were anesthetized as described above, and the tumor-bearing limb was positioned under the spot. Total dose of 200-300 mW/cm^2 was delivered for 30 minutes (360-540 J cm^−2). Mice bearing colon-26 tumors were also irradiated without having received injection of SBDPiR715. Another group of animals was treated with SBDPiR715 i.p. without irradiation. After irradiation, mice were allowed to recover in an animal cotton blanket until they resumed normal activity. A positive tumor response was ascribed to tumors that appeared flat blackened or reddened scarp and necrotic tissue within a few days after PDT. Animals were considered cured after complete tumor regression and the absence of a palpable tumor.
SMILES,palpable tumor (colon-26 tumor model; 60 days post-treatment),tumor volume (colon-26 tumor model; SBDPiR690-induced PDT),"tumor necrosis (colon-26 tumor model; after 24-72 h, light fluence 150 J cm^−2)","survival (colon-26 tumor model; after 60 days, SBDPiR690-induced PDT)",oedema and inflammation (colon-26 tumor model; after PDT),body weight (colon-26 tumor model; high light doses (~500 J cm^−2)),tissue morphology (H&E) (colon cancer tumors),clearance from organs and tissue [1],ε [2],λabs [2],λflu [2],singlet oxygen generation [3],organ biodistribution [4],extent of necrosis (colon-26 tumors; 6 and 24 hour drug-light interval),extent of necrosis (colon-26 tumors; 32 hour drug-light interval),"tumor healing time (colon-26 tumors; after PDT, with remodeling of damaged tissue)","tumor response to PDT (colon-26 tumors; all treatment groups (6, 24, 32 h drug-light interval), monitored for 90 days)",weight loss / visual signs of toxicity (colon-26 tumors; treatment dose 5 μmol/kg (3.7 mg/kg) i.p.),onset of tumor necrosis after PDT (colon-26 tumors; treatment groups)
"F[B-]1(F)n2c(cc3sc(-c4ccccc4)cc32)C(C(F)(F)F)=C2C=c3sc(-c4ccccc4)cc3=[N+]21 [SBDPiR690, 2,8-Di(phenyl)-1-trifluoromethyl-dithieno[2,3-b]-[3,2-g]-5,5-difluoro-5-bora-3a,4a-diaza-s-indacene]",no palpable tumor observed,elimination of tumors,Mass necrosis localized at the tumor region,100%,"oedema and inflammation was observable after 24 hours, but healed after a few days",fairly constant,necrosis associated with the treated mice,≤ 24 h,120 000 M^−1 cm^−1,688 nm,700 nm,,,,,,,,
COc1ccc(-c2sc3c(c2Br)=[N+]2C(=C(C(F)(F)F)c4cc5sc(-c6ccc(OC)cc6)c(Br)c5n4[B-]2(F)F)C=3)cc1 [SBDPiR715],,,,,,,,,,,,effective singlet oxygen generation,a higher accumulation of SBDPiR715 was observed in the liver and spleen,necrosis spread to neighboring skin regions,confinement of necrosis to the tumor region,~30 days,complete tumor ablation,No weight loss or other visual signs of toxicity,mass necrosis and eschar within a day
